Results from patent US20230280220A1, “Benzimidazole Derivative Compounds and Uses Thereof” (Pfizer Inc., priority 2019, published 2023).

Target: ITK enzyme (ITK FL, N-Flag and C-His tagged) (Homo sapiens (Human), UniProt Q08881)
Test: ITK enzyme assay (IL-2-inducible T-cell kinase activity)
Assay type: biochemical
Settings: geometric mean of count n
Description: IL-2-Inducible T-Cell Kinase (ITK) Activity, IC50 (nM)
ITK activity was determined by measuring the effect of a test compound in an ITK enzyme assay.
1.0 M HEPES Buffer pH 7.5 solution was prepared as follows: 238.3 g HEPES free acid (Sigma) and 800 mL of water were combined, and the mixture was stirred until complete dissolution. The pH was adjusted to 7.5 via titration with 5N NaOH and the volume adjusted to 1000 mL. The solution was filtered and sterilized.
ITK assay buffer was prepared as follows: 50 mL of HPLC-grade water was treated with 2 mL of 1.0 M HEPES Buffer, 500 μL of 2% Gelatin (Sigma), 1.0 mL of aqueous MgCl2 solution (1.0 M), and 1.0 mL of aqueous glutathione solution (0.5 M), and the solution was mixed. The solution was brought to 99 mL in a graduated cylinder by addition of water and sterilized through a 0.2 μm filter. 0.1 mL of Brij-35™ Surfact-Amps™ Detergent Solution (10% w/v aqueous solution, ThermoFisher) and 1.0 mL of ATP (Teknova, 100 mM) were added and the solution was mixed.
The resulting solution was stored on ice. 30 Minutes prior to use, the enzyme solution was removed from ice and equilibrated to RT by incubation in a RT water bath.
Preparation of 4×ITK substrate solution was as follows: 50 mL of ITK assay buffer was treated with 100 μL of BTK peptide (China Peptide Company, 2 mM stock solution in DMSO). The tube was capped, mixed by gently inverting the tube, and then stored on ice. 30 Minutes prior to use, the substrate solution was removed from ice and equilibrated to RT by incubation in a RT water bath.
At the time of assay, 7.5 μL of the 1.33×ITK enzyme solution was added to plate wells containing 0.1 μL of varying concentrations of test compound in DMSO. The plate was incubated 30 min at RT. The plate wells were each treated with 2.5 uL of the 4×ITK substrate solution and the plate was sealed (TopSeal™, Perkin Elmer). The plate was spun at 1000 rpm for 30 sec and then incubated for 60 min at RT. The seal was removed, and each well was treated with 10 μL of Stop/Detect Buffer (20 mM HEPES pH 7.5, 0.01% gelatin, 1 nM LANCE PT66 (Perkin Elmer), 16.5 μg/ml Surelight APC (Perkin Elmer), 10 mM EDTA, 250 mM NaCl). The plate was again covered and was spun at 1000 rpm for 30 seconds. The plate was allowed to incubate overnight at RT and in a closed carrier to reduce dehydration. The seal was removed, and the fluorescence was read with a plate reader with an excitation wavelength of […] and an emission wavelength of 615 nm.

Chain of ITK enzyme (ITK FL, N-Flag and C-His tagged) (Q08881 whole entry): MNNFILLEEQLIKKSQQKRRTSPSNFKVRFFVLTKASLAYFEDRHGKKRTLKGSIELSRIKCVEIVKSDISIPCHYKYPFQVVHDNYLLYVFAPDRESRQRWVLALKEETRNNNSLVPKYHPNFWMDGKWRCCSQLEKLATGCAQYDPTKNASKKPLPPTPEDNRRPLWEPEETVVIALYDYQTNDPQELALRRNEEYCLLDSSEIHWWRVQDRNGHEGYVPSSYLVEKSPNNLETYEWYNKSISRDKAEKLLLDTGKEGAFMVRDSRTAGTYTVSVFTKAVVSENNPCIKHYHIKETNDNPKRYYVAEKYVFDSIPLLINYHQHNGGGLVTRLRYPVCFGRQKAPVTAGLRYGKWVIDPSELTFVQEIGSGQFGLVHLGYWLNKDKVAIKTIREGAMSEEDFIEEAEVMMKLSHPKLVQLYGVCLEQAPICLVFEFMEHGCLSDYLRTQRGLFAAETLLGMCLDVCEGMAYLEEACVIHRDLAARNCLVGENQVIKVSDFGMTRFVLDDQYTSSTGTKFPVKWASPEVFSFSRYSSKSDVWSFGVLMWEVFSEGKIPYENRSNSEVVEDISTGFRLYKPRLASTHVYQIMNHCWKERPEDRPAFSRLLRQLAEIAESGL

IC50 [nM]	SMILES
9	COc1cc2[nH]c(-c3n[nH]c4c3C[C@@H]3C[C@]3(C)C4)nc2cc1N(C)C(=O)[C@H](C)N1CCOCC1 [Example 19, (S)—N-(6-methoxy-2-((4aS,5aR)-5a-methyl-1,4,4a,5,5a,6-hexahydrocyclopropa[f]indazol-3-yl)-1H-benzo[d]imidazol-5-yl)-N-methyl-2-morpholinopropanamide]
5	C[C@@H](C(=O)N(C)c1cc2nc(-c3n[nH]c4c3C[C@@H]3C[C@]3(C)C4)[nH]c2cc1Br)N1CCOCC1 [Example 20, (S)—N-(6-bromo-2-((4aS,5aR)-5a-methyl-1,4,4a,5,5a,6-hexahydrocyclopropa[f]indazol-3-yl)-1H-benzo[d]imidazol-5-yl)-N-methyl-2-morpholinopropanamide]
9	C[C@@H](C(=O)N(C)c1cc2nc(-c3n[nH]c4c3C[C@@H]3C[C@]3(C)C4)[nH]c2cc1C#N)N1CCOCC1 [Example 21, (S)—N-(6-cyano-2-((4aS,5aR)-5a-methyl-1,4,4a,5,5a,6-hexahydrocyclopropa[f]indazol-3-yl)-1H-benzo[d]imidazol-5-yl)-N-methyl-2-morpholinopropanamide]
8	C[C@@H](C(=O)N(C)c1cc2nc(-c3n[nH]c4c3C[C@@H]3C[C@]3(C)C4)[nH]c2c(F)c1F)N1CCOCC1 [Example 24, (S)—N-(6,7-difluoro-2-((4aS,5aR)-5a-methyl-1,4,4a,5,5a,6-hexahydrocyclopropa[f]indazol-3-yl)-1H-benzo[d]imidazol-5-yl)-N-methyl-2-morpholinopropanamide]
13	CCN(C(=O)[C@H](C)N1CCOCC1)c1cc2nc(-c3n[nH]c4c3C[C@@H]3C[C@]3(C)C4)[nH]c2c(F)c1F [Example 25, (S)—N-(6,7-difluoro-2-((4aS,5aR)-5a-methyl-1,4,4a,5,5a,6-hexahydrocyclopropa[f]indazol-3-yl)-1H-benzo[d]imidazol-5-yl)-N-ethyl-2-morpholinopropanamide]
12	Cc1cc2[nH]c(-c3n[nH]c4c3C[C@@H]3C[C@]3(C)C4)nc2cc1N(C)C(=O)CN1CCO[C@H](CO)C1 [Example 26, 2-((S)-2-(hydroxymethyl)morpholino)-N-methyl-N-(6-methyl-2-((4aS,5aR)-5a-methyl-1,4,4a,5,5a,6-hexahydrocyclopropa[f]indazol-3-yl)-1H-benzo[d]imidazol-5-yl)acetamide]
17	Cc1cc2[nH]c(-c3n[nH]c4c3C[C@@H]3C[C@]3(C)C4)nc2cc1N(C)C(=O)CN1CCOC(CO)C1 (stereo partly drawn) [Example 27, 2-(2-(Hydroxymethyl)morpholino)-N-methyl-N-(6-methyl-2-((4aS,5aR)-5a-methyl-1,4,4a,5,5a,6-hexahydrocyclopropa[f]indazol-3-yl)-1H-benzo[d]imidazol-5-yl)acetamide]
19	Cc1cc2[nH]c(-c3n[nH]c4c3C[C@@H]3C[C@]3(C)C4)nc2cc1N(C)C(=O)CN1CCO[C@@H](CO)C1 [Example 28, 2-((R)-2-(Hydroxymethyl)morpholino)-N-methyl-N-(6-methyl-2-((4aS,5aR)-5a-methyl-1,4,4a,5,5a,6-hexahydrocyclopropa[f]indazol-3-yl)-1H-benzo[d]imidazol-5-yl)acetamide]
12	Cc1cc2[nH]c(-c3n[nH]c4c3C[C@@H]3C[C@]3(C)C4)nc2cc1N(C)C(=O)CN1CCOC(C)(C)C1 [Example 29, 2-(2,2-Dimethylmorpholino)-N-methyl-N-(6-methyl-2-((4aS,5aR)-5a-methyl-1,4,4a,5,5a,6-hexahydrocyclopropa[f]indazol-3-yl)-1H-benzo[d]imidazol-5-yl)acetamide]
15	Cc1cc2[nH]c(-c3n[nH]c4c3C[C@@H]3C[C@]3(C)C4)nc2cc1N(C)C(=O)CN1CCO[C@H](C)C1 [Example 30, N-Methyl-N-(6-methyl-2-((4aS,5aR)-5a-methyl-1,4,4a,5,5a,6-hexahydrocyclopropa[f]indazol-3-yl)-1H-benzo[d]imidazol-5-yl)-2-((R)-2-methylmorpholino)acetamide]
13	Cc1cc2[nH]c(-c3n[nH]c4c3C[C@@H]3C[C@]3(C)C4)nc2cc1N(C)C(=O)CN1CCO[C@@H](C)C1 [Example 31, N-Methyl-N-(6-methyl-2-((4aS,5aR)-5a-methyl-1,4,4a,5,5a,6-hexahydrocyclopropa[f]indazol-3-yl)-1H-benzo[d]imidazol-5-yl)-2-((S)-2-methylmorpholino)acetamide]
16	Cc1cc2[nH]c(-c3n[nH]c4c3C[C@@H]3C[C@]3(C)C4)nc2cc1N(C)C(=O)CN1C[C@@H](C)O[C@H](C)C1 [Example 32, 2-((2R,6R)-2,6-Dimethylmorpholino)-N-methyl-N-(6-methyl-2-((4aS,5aR)-5a-methyl-1,4,4a,5,5a,6-hexahydrocyclopropa[f]indazol-3-yl)-1H-benzo[d]imidazol-5-yl)acetamide]
11	Cc1cc2[nH]c(-c3n[nH]c4c3C[C@@H]3C[C@]3(C)C4)nc2cc1N(C)C(=O)CN1C[C@H](C)O[C@@H](C)C1 [Example 33, 2-((2S,6S)-2,6-Dimethylmorpholino)-N-methyl-N-(6-methyl-2-((4aS,5aR)-5a-methyl-1,4,4a,5,5a,6-hexahydrocyclopropa[f]indazol-3-yl)-1H-benzo[d]imidazol-5-yl)acetamide]
10	Cc1cc2[nH]c(-c3n[nH]c4c3C[C@@H]3C[C@]3(C)C4)nc2cc1N(C)C(=O)CN1CCOCC1 [Example 34, N-Methyl-N-(6-methyl-2-((4aS,5aR)-5a-methyl-1,4,4a,5,5a,6-hexahydrocyclopropa[f]indazol-3-yl)-1H-benzo[d]imidazol-5-yl)-2-morpholinoacetamide]
6	Cc1cc2[nH]c(-c3n[nH]c4c3C[C@@H]3C[C@]3(C)C4)nc2cc1N(C)C(=O)CC1CCOCC1 [Example 35, N-Methyl-N-(6-methyl-2-((4aS,5aR)-5a-methyl-1,4,4a,5,5a,6-hexahydrocyclopropa[f]indazol-3-yl)-1H-benzo[d]imidazol-5-yl)-2-(tetrahydro-2H-pyran-4-yl)acetamide]
9	C[C@@H](C(=O)N(C)c1cc(Br)c2[nH]c(-c3n[nH]c4c3C[C@@H]3C[C@]3(C)C4)nc2c1)N1CCOCC1 [Example 37, (S)—N-(7-bromo-2-((4aS,5aR)-5a-methyl-1,4,4a,5,5a,6-hexahydrocyclopropa[f]indazol-3-yl)-1H-benzo[d]imidazol-5-yl)-N-methyl-2-morpholinopropanamide]
7	C[C@@H](C(=O)N(C)c1cc(C#N)c2[nH]c(-c3n[nH]c4c3C[C@@H]3C[C@]3(C)C4)nc2c1)N1CCOCC1 [Example 38, (S)—N-(7-cyano-2-((4aS,5aR)-5a-methyl-1,4,4a,5,5a,6-hexahydrocyclopropa[f]indazol-3-yl)-1H-benzo[d]imidazol-5-yl)-N-methyl-2-morpholinopropanamide]
19	COc1cc(N(C)C(=O)[C@H](C)N2CCOCC2)cc2nc(-c3n[nH]c4c3C[C@@H]3C[C@]3(C)C4)[nH]c12 [Example 40, (S)—N-(7-methoxy-2-((4aS,5aR)-5a-methyl-1,4,4a,5,5a,6-hexahydrocyclopropa[f]indazol-3-yl)-1H-benzo[d]imidazol-5-yl)-N-methyl-2-morpholinopropanamide]
